Molecular target: T1, liver carnitine palmitoyl transferase 1 (L-CPT1) (Homo sapiens, UniProt P50416)
T1 construct: made in house; host or cells: Pichia pastoris strain X-33 (crude cell-free extract)
T1 sequence (P50416 1-773): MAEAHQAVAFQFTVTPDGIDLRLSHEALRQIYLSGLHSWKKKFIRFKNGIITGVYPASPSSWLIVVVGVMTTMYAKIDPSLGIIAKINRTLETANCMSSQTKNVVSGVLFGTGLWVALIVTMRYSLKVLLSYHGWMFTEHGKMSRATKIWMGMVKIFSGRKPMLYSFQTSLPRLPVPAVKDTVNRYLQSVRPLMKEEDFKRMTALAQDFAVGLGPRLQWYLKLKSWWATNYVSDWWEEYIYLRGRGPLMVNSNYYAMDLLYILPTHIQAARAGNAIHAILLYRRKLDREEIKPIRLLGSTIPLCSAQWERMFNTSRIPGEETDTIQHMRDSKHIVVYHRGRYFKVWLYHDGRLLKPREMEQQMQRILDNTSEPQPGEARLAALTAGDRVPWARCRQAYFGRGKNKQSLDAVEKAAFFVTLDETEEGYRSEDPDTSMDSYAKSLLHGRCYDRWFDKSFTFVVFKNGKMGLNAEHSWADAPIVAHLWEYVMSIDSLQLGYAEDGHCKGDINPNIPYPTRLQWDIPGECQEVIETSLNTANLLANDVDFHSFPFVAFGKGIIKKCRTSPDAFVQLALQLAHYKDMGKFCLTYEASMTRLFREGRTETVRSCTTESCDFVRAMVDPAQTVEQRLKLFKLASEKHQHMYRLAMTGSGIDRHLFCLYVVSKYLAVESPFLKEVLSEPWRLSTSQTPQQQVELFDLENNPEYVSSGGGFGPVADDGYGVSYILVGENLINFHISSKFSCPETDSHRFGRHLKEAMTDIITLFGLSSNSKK
Test: L-CPT1 inhibition, spectrophotometric CPT activity assay with DTNB (Ellman's reagent)
Format: biochemical
Settings: human liver CPT1 expressed in P. pastoris, cell extracts; carnitine 500 μM, palmitoyl-CoA 80 μM, DTNB 300 μM, pH 7.4
Protocol: The following tests were carried out in order to determine the activity of the compounds of the present invention. Background information on the performed assays can be found in: Jackson et al., 1999, Biochem. J. 341, 483-489 and Jackson et al., 2000, J. Biol. Chem. 275, 19560-19566.
Human liver and muscle CPT1 cDNAs and rat CPT2 cDNA were subcloned in pGAPZB or pGAPZA, respectively. These plasmids were used to transform P. pastoris strain X-33 via electroporation after the preparation of electrocompetent cells. High copy number clones were selected where necessary using 0.5 or 1 mg/ml Zeocin. Cultures for activity measurements were induced for 16 h in YPD medium (1% yeast extract, 2% peptone, 2% glucose). Crude cell extracts were prepared by disrupting the cells with glass beads or French Press, depending on fermenter sizes. After centrifugation, the cell-free extracts were resuspended in cell breaking buffer (50 mM Tris, pH7.4, 100 mM KCl, 1 mM EDTA) in the presence of a protease inhibitor cocktail, before aliquoting and freezing at −20° C.
CPT activity was measured using a spectrophotometric assay using 5,5′-dithio-bis-(2-nitrobenzoic acid) (DTNB) also called Ellman's reagent. The HS-CoA released on the formation of acylcarnitine from carnitine (500 μM) and palmitoyl-CoA (80 μM) reduced DTNB (300 μM) forming 5-mercapto-(2-nitrobenzoic acid) which absorbed at 410 nm with a molar extinction coefficient of 13600 M^−1cm^−1. The assay buffer contained 120 mM KCl, 25 mM Tris, pH 7.4, 1 mM EDTA. This assay was used for the identification of selective inhibitors of the liver CPT1 isoform versus the muscle CPT1 and CPT2 isoforms.

| IC50 | SMILES |
| --- | --- |
| 176 nM | O=C(COc1ccccc1)N1CCCC[C@@H]1c1csc(-c2ccccn2)n1 [Example 34, 2-Phenoxy-1-[(R)-2-(2-pyridin-2-yl-thiazol-4-yl)-piperidin-1-yl]-ethanone] |
| 155 nM | O=C(COc1ccccc1)N1CCCC[C@@H]1c1csc(-c2ccc(F)cc2)n1 [Example 35, 1-{(R)-2-[2-(4-Fluoro-phenyl)-thiazol-4-yl]-piperidin-1-yl}-2-phenoxy-ethanone] |
| 224 nM | O=C(COc1ccccc1)N1CCCC[C@@H]1c1csc(-c2cnccn2)n1 [Example 29, 2-Phenoxy-1-[(R)-2-(2-pyrazin-2-yl-thiazol-4-yl)-piperidin-1-yl]-ethanone] |
| 725 nM | O=C(COc1ccccc1)N1CCCC[C@@H]1c1csc(Cc2ccc(Cl)cc2)n1 [Example 37, 1-{(R)-2-[2-(4-Chloro-benzyl)-thiazol-4-yl]-piperidin-1-yl}-2-phenoxy-ethanone] |
| 79.4 nM | COc1ccc(-c2nc([C@H]3CCCCN3C(=O)COc3ccccc3)cs2)cn1 [Example 33, 1-{(R)-2-[2-(6-Methoxy-pyridin-3-yl)-thiazol-4-yl]-piperidin-1-yl}-2-phenoxy-ethanone] |
| 100 nM | Cc1sc([C@H]2CCCCN2C(=O)COc2ccccc2)nc1-c1cccc(C(=O)O)c1 [Example 46, 3-{5-Methyl-2-[(R)-1-(2-phenoxy-acetyl)-piperidin-2-yl]-thiazol-4-yl}-benzoic acid] |
| 296 nM | O=C(O)c1ccc(-c2nc([C@H]3CCCCN3C(=O)COc3ccccc3)cs2)cc1 [Example 41, 4-{4-[(R)-1-(2-Phenoxy-acetyl)-piperidin-2-yl]-thiazol-2-yl}-benzoic acid] |
| 56.2 nM | O=C(COc1ccccc1)N1CCCC[C@@H]1c1csc(-c2cccnc2)n1 [Example 31, 2-Phenoxy-1-[(R)-2-(2-pyridin-3-yl-thiazol-4-yl)-piperidin-1-yl]-ethanone] |
| 80.3 nM | O=C(O)c1cccc(-c2nc([C@H]3CCCCN3C(=O)COc3ccccc3)cs2)c1 [Example 40, 3-{4-[(R)-1-(2-Phenoxy-acetyl)-piperidin-2-yl]-thiazol-2-yl}-benzoic acid] |
| 150 nM | O=C(COc1ccccc1)N1CCCC[C@@H]1c1csc(-c2ccncc2)n1 [Example 32, 2-Phenoxy-1-[(R)-2-(2-pyridin-4-yl-thiazol-4-yl)-piperidin-1-yl]-ethanone] |
| 88.7 nM | Cc1ccc(-c2nc([C@H]3CCCCN3C(=O)COc3ccccc3)cs2)cn1 [Example 30, 1-{(R)-2-[2-(6-Methyl-pyridin-3-yl)-thiazol-4-yl]-piperidin-1-yl}-2-phenoxy-ethanone] |
| 300 nM | COC(=O)c1cccc(-c2nc([C@H]3CCCCN3C(=O)COc3ccccc3)sc2C)c1 [Example 45, 3-{5-Methyl-2-[(R)-1-(2-phenoxy-acetyl)-piperidin-2-yl]-thiazol-4-yl}-benzoic acid methyl ester] |

The next lines start with the compound.

| SMILES | IC50 |
| --- | --- |
| CN(C)c1ccc(-c2csc([C@H]3CCCCN3C(=O)COc3ccccc3)n2)cc1 [Example 18, 1-{(R)-2-[4-(4-Dimethylamino-phenyl)-thiazol-2-yl]-piperidin-1-yl}-2-phenoxy-ethanone] | 420 nM |
| O=C(COc1ccccc1)N1CCCC[C@@H]1c1nc(-c2cccnc2)cs1 [Example 8, 2-Phenoxy-1-[(R)-2-(4-pyridin-3-yl-thiazol-2-yl)-piperidin-1-yl]-ethanone] | 25 nM |
| Cc1c(-c2csc([C@H]3CCCCN3C(=O)COc3ccccc3)n2)[nH]c2ccccc12 [Example 19, 1-{(R)-2-[4-(3-Methyl-1H-indol-2-yl)-thiazol-2-yl]-piperidin-1-yl}-2-phenoxy-ethanone] | 330 nM |
| O=C(COc1ccccc1)N1CCCC[C@@H]1c1csc(-c2n[nH]c3ccccc23)n1 [Example 26, 1-{(R)-2-[2-(1H-Indazol-3-yl)-thiazol-4-yl]-piperidin-1-yl}-2-phenoxy-ethanone] | 130 nM |
| O=C1Cc2cc(-c3csc([C@H]4CCCCN4C(=O)COc4ccccc4)n3)ccc2N1 [Example 14, 5-{2-[(R)-1-(2-Phenoxy-acetyl)-piperidin-2-yl]-thiazol-4-yl}-1,3-dihydro-indol-2-one] | 65.9 nM |
| O=C(O)c1ccc(-c2csc([C@H]3CCCCN3C(=O)COc3ccccc3)n2)cc1 [Example 3, 4-{2-[(R)-1-(2-Phenoxy-acetyl)-piperidin-2-yl]-thiazol-4-yl}-benzoic acid] | 129 nM |
| N#Cc1cccc(-c2csc([C@H]3CCCCN3C(=O)COc3ccccc3)n2)c1 [Example 21, 3-{2-[(R)-1-(2-Phenoxy-acetyl)-piperidin-2-yl]-thiazol-4-yl}-benzonitrile] | 65 nM |
| CS(=O)(=O)c1ccc(-c2csc([C@H]3CCCCN3C(=O)COc3ccccc3)n2)cc1 [Example 12, 1-{(R)-2-[4-(4-Methanesulfonyl-phenyl)-thiazol-2-yl]-piperidin-1-yl}-2-phenoxy-ethanone] | 141 nM |
| O=C(COc1ccccc1)N1CCCC[C@@H]1c1nc(-c2ccccc2)cs1 [Example 2, 2-Phenoxy-1-[(R)-2-(4-phenyl-thiazol-2-yl)-piperidin-1-yl]-ethanone] | 268 nM |
| COc1ccccc1-c1csc([C@H]2CCCCN2C(=O)COc2ccccc2)n1 [Example 11, 1-{(R)-2-[4-(2-Methoxy-phenyl)-thiazol-2-yl]-piperidin-1-yl}-2-phenoxy-ethanone] | 272 nM |
| O=C(O)c1cccc(-c2csc([C@H]3CCCCN3C(=O)COc3ccccc3)n2)c1 [Example 5, 3-{2-[(R)-1-(2-Phenoxy-acetyl)-piperidin-2-yl]-thiazol-4-yl}-benzoic acid] | 33.5 nM |
| O=C(COc1ccccc1)N1CCCC[C@@H]1c1csc(-c2ccc(C(F)(F)F)cn2)n1 [Example 28, 2-Phenoxy-1-{(R)-2-[2-(5-trifluoromethyl-pyridin-2-yl)-thiazol-4-yl]-piperidin-1-yl}-ethanone] | 935 nM |
| COC(=O)c1cccc(-c2csc([C@H]3CCCCN3C(=O)COc3ccccc3)n2)n1 [Example 13, 6-{2-[(R)-1-(2-Phenoxy-acetyl)-piperidin-2-yl]-thiazol-4-yl}-pyridine-2-carboxylic acid methyl ester] | 42.4 nM |
| O=C(COc1ccccc1)N1CCCC[C@@H]1c1nc(-c2ccncc2)cs1 [Example 10, 2-Phenoxy-1-[(R)-2-(4-pyridin-4-yl-thiazol-2-yl)-piperidin-1-yl]-ethanone] | 68 nM |
| O=C(COc1ccccc1)N1CCCC[C@@H]1c1nc(-c2ccc(Cl)nc2)cs1 [Example 22, 1-{(R)-2-[4-(6-Chloro-pyridin-3-yl)-thiazol-2-yl]-piperidin-1-yl}-2-phenoxy-ethanone] | 95 nM |
| O=C(COc1ccccc1)N1CCCC[C@@H]1c1csc(-c2ccc(C(F)(F)F)nc2)n1 [Example 27, 2-Phenoxy-1-{(R)-2-[2-(6-trifluoromethyl-pyridin-3-yl)-thiazol-4-yl]-piperidin-1-yl}-ethanone] | 313 nM |
| O=C(COc1ccccc1)N1CCCC[C@@H]1c1nc(-c2ccc(Cl)cc2)cs1 [Example 1, 1-{(R)-2-[4-(4-Chloro-phenyl)-thiazol-2-yl]-piperidin-1-yl}-2-phenoxy-ethanone] | 1400 nM |
| CC(=O)Nc1ccc(-c2csc([C@H]3CCCCN3C(=O)COc3ccccc3)n2)cc1 [Example 15, N-(4-{2-[(R)-1-(2-Phenoxy-acetyl)-piperidin-2-yl]-thiazol-4-yl}-phenyl)-acetamide] | 32.6 nM |
